The record followed here is patent publication US20140221361A1, “C-19 MODIFIED TRITERPENOIDS WITH HIV MATURATION INHIBITORY ACTIVITY” (priority 2013, published 2014).

As usually defined, the EC50 is the concentration needed to bring the measured effect to its halfway point.

The first experiment has as its system recombinant NL4-3 virus (Renilla luciferase in nef, Gag P373S). The experiment is described as follows: HIV cell culture assay (luciferase reporter, MT-2 cells). Format: cell-based, HIV-1. As to conditions: MT-2 cells infected for 4-5 days with NLRluc recombinants; luciferase activity; serial dilutions of inhibitor. In a few lines: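 MT-2 cells infected with recombinant NL4-3 carrying Renilla luciferase in place of part of nef and Gag P373S, virus made by 293T transfection. Infection ran 4-5 days with serial inhibitor dilutions. Antiviral activity read as luciferase activity (Dual Luciferase reagents mixed with lysis buffer).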
In general terms: In a reporter assay the amount or activity of a reporter protein is the signal.
Turning to `CC(C(=O)O)[C@@H]1CC[C@]2(NCCN3CCS(=O)(=O)CC3)CC[C@]3(C)[C@H](CC[C@@H]4[C@@]5(C)CC=C(c6ccc(C(=O)O)c(F)c6)C(C)(C)[C@@H]5CC[C@]43C)[C@@H]12` (stereo partly drawn) [Example A6, 4-((1R,3aS,5aR,5bR,7aR,11aS,11bR,13aR,13bR)-1-(1-carboxyethyl)-3a-((2-(1,1-dioxidothiomorpholino)ethyl)amino)-5a,5b,8,8,11a-pentamethyl-2,3,3a,4,5,5a,5b,6,7,7a,8,11,11a,11b,12,13,13a,13b-octadecahydro-1H-cyclopenta[a]chrysen-9-yl)-2-fluorobenzoic acid], the EC50 came out at 0.39 µM.

The experiment is the same for the next values; noted with them: Renilla, NL43, MT-2 cells infected for 4-5 days with NLRluc recombinants; luciferase activity; serial dilutions of inhibitor.
Turning to `CC1([C@@H]2CC[C@]3(N)CC[C@]4(C)[C@H](CC[C@@H]5[C@@]6(C)CC=C(c7ccc(C(=O)O)cc7)C(C)(C)[C@@H]6CC[C@]54C)[C@@H]23)CC1` [Example B49, 4-((1R,3aS,5aR,5bR,7aR,11aS,11bR,13aR,13bR)-3a-amino-5a,5b,8,8,11a-pentamethyl-1-(1-methylcyclopropyl)-2,3,3a,4,5,5a,5b,6,7,7a,8,11,11a,11b,12,13,13a,13b-octadecahydro-1H-cyclopenta[a]chrysen-9-yl)benzoic acid], the EC50 stood at 0.000985 µM.
Still for that read-out and setting: under `C=C(CNCCO)[C@@H]1CC[C@]2(C(=O)O)CC[C@]3(C)[C@H](CC[C@@H]4[C@@]5(C)CC=C(c6ccc(C(=O)O)cc6)C(C)(C)[C@@H]5CC[C@]43C)[C@@H]12` [Example 2, (1R,3aS,5aR,5bR,7aR,11aS,11bR,13aR,13bS)-9-(4-carboxyphenyl)-1-(3-(2-hydroxyethylamino)prop-1-en-2-yl)-5a,5b,8,8,11a-pentamethyl-2,3,3a,4,5,5a,5b,6,7,7a,8,11,11a,11b,12,13,13a,13b-octadecahydro-1H-cyclopenta[a]chrysene-3a-carboxylic acid] stands 0.14 µM; under `CNC(=O)N[C@@H]1CC[C@]2(NCCN3CCS(=O)(=O)CC3)CC[C@]3(C)[C@H](CC[C@@H]4[C@@]5(C)CC=C(c6ccc(C(=O)O)cc6)C(C)(C)[C@@H]5CC[C@]43C)[C@@H]12` [Example B29, 4-((1R,3aR,5aR,5bR,7aR,11aS,11bR,13aR,13bS)-3a-((2-(1,1-dioxidothiomorpholino)ethyl)amino)-5a,5b,8,8,11a-pentamethyl-1-(3-methylureido)-2,3,3a,4,5,5a,5b,6,7,7a,8,11,11a,11b,12,13,13a,13b-octadecahydro-1H-cyclopenta[a]chrysen-9-yl)benzoic acid], 0.03 µM.
In the case of `COCCS(=O)(=O)CCN(C)CCN[C@]12CC[C@@H](N(C)C)[C@@H]1[C@H]1CC[C@@H]3[C@@]4(C)CC=C(c5ccc(C(=O)O)cc5)C(C)(C)[C@@H]4CC[C@@]3(C)[C@]1(C)CC2` [Example B34], the EC50 stood at 0.02 µM.
Take `CC([C@@H]1CC[C@]2(NCCN3CCS(=O)(=O)CC3)CC[C@]3(C)[C@H](CC[C@@H]4[C@@]5(C)CC=C(c6ccc(C(=O)O)cc6)C(C)(C)[C@@H]5CC[C@]43C)[C@@H]12)N1CCCC1=O` (stereo partly drawn) [Example B32, 4-((1R,3aS,5aR,5bR,7aR,11aS,11bR,13aR,13bS)-3a-((2-(1,1-dioxidothiomorpholino)ethyl)amino)-5a,5b,8,8,11a-pentamethyl-1-(1-(2-oxopyrrolidin-1-yl)ethyl)-2,3,3a,4,5,5a,5b,6,7,7a,8,11,11a,11b,12,13,13a,13b-octadecahydro-1H-cyclopenta[a]chrysen-9-yl)benzoic acid]: the EC50 amounted to 0.00284 µM.
On the same count and under the same terms, under `CN[C@]12CC[C@@H](C3(C)CC3)[C@@H]1[C@H]1CC[C@@H]3[C@@]4(C)CC=C(c5ccc(C(=O)O)cc5)C(C)(C)[C@@H]4CC[C@@]3(C)[C@]1(C)CC2` [Example B50, 4-((1R,3aS,5aR,5bR,7aR,11aS,11bR,13aR,13bR)-5a,5b,8,8,11a-pentamethyl-3a-(methylamino)-1-(1-methylcyclopropyl)-2,3,3a,4,5,5a,5b,6,7,7a,8,11,11a,11b,12,13,13a,13b-octadecahydro-1H-cyclopenta[a]chrysen-9-yl)benzoic acid] stands 0.00136 µM.
Same read-out and setting: under `C=C(COCCN1CCOCC1)[C@@H]1CC[C@]2(C(=O)NCCN(C)C)CC[C@]3(C)[C@H](CC[C@@H]4[C@@]5(C)CC=C(c6ccc(C(=O)O)cc6)C(C)(C)[C@@H]5CC[C@]43C)[C@@H]12` [Example 14, 4-((1R,3aS,5aR,5bR,7aR,11aS,11bR,13aR,13bS)-3a-(2-(dimethylamino)ethylcarbamoyl)-5a,5b,8,8,11a-pentamethyl-1-(3-(2-morpholinoethoxy)prop-1-en-2-yl)-2,3,3a,4,5,5a,5b,6,7,7a,8,11,11a,11b,12,13,13a,13b-octadecahydro-1H-cyclopenta[a]chrysen-9-yl)benzoic acid] stands 0.00072 µM.
